Assay results as given in PubChem BioAssay (NCI).
Values joined by “and” are separate entries in the source; they are usually repeats but may differ in a detail not shown here. Equal values may be shown once.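 Briefly, cells in 96-well plates were exposed to five compound concentrations for 48 h, and endpoints were estimated by linear interpolation. GI50 = concentration required for 50% inhibition of growth. TGI: total growth inhibition.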

How the values were obtained:
Assay in all cases: NCI-60 cell line screen, 48 h
[1] = test system: CCRF-CEM leukemia
[2] = test system: HCT-15 colon
[3] = test system: HOP-62 NSCLC
[4] = test system: NCI-H226 lung
[5] = test system: RPMI-8226 leukemia
[6] = test system: RXF 393 renal
[7] = test system: SF-295 CNS
[8] = test system: SF-268 CNS
[9] = test system: SN12C renal
[10] = test system: DU-145 prostate

Compound | TGI [1] | TGI [2] | TGI [3] | TGI [4] | TGI [5] | TGI [6] | TGI [7] | TGI [8] | TGI [9] | GI50 [10] | TGI [10] | GI50 [3] | GI50 [6] | GI50 [8] | GI50 [7] | GI50 [9] | GI50 [1] | GI50 [2] | GI50 [4] | GI50 [5]
Cc1[nH]c2ccccc2c1CC/C(=N\Nc1ccccc1)c1ccccc1 | > 100 µM | > 100 µM | > 100 µM | > 100 µM | > 100 µM | > 100 µM | > 100 µM | – | – | – | – | – | – | – | – | – | – | – | – | –
Cc1ccc(S(=O)(=O)N2CCN(C=S)CC2)cc1 | > 100 µM | > 100 µM | > 100 µM | – | – | > 100 µM | – | > 100 µM | > 100 µM | – | – | – | – | – | – | – | – | – | – | –
CC1=NN(C(=O)Nc2ccc(Cl)cc2)C(=O)C2CCC(=O)N12 (stereo not drawn) | > 100 µM | 44.2 µM | > 100 µM | – | > 100 µM | > 100 µM | > 100 µM | > 100 µM | > 100 µM | – | – | – | – | – | – | – | – | – | – | –
Cc1ccc(/C=C(\NC(=O)c2ccccc2)c2nc3ccccc3[nH]2)cc1 | – | > 100 µM | > 100 µM | – | – | > 100 µM | > 100 µM | > 100 µM | > 100 µM | – | – | – | – | – | – | – | – | – | – | –
CC(=O)O[C@H]1CCN2C(=O)C=CC(OCc3ccccc3)C12 (stereo partly drawn) | > 100 µM | > 100 µM | > 100 µM | > 100 µM | > 100 µM | – | > 100 µM | > 100 µM | > 100 µM | – | – | – | – | – | – | – | – | – | – | –
COc1cc(CNCCN2C(=O)c3ccc4c5c(ccc(c35)C2=O)C(=O)N(CCNCc2cc(OC)c(OC)c(OC)c2)C4=O)cc(OC)c1OC | – | – | 0.999 µM | – | – | 0.902 µM | 1.3 µM | 2.37 µM | 1.38 µM | 0.197 µM | 0.743 µM | 0.28 µM | 0.251 µM | 0.786 µM | 0.494 µM | 0.622 µM | – | – | – | –
CC(C)(C)C(=O)Nc1cccc2oc(-c3ccccc3)cc12 | > 100 µM | > 100 µM | > 100 µM | – | > 100 µM | > 100 µM | > 100 µM | – | > 100 µM | – | – | – | – | – | – | – | – | – | – | –
O=C1CC(c2ccccc2)Cc2nc3ccc(Br)cc3cc21 (stereo not drawn) | > 100 µM | > 100 µM | > 100 µM | > 20.3 µM | > 100 µM | – | 28.3 µM | > 100 µM | > 100 µM | 0.209 µM | > 100 µM | 0.526 µM | – | 4.65 µM | 0.265 µM | 0.577 µM | 0.0492 µM | 0.476 µM | 0.908 µM | 2.92 µM
O=[N+]([O-])c1ccc(C(Cl)C(Cl)c2ccc(C(Cl)C(Cl)c3ccc([N+](=O)[O-])cc3[N+](=O)[O-])cc2)c([N+](=O)[O-])c1 (stereo not drawn) | 1.02 µM | 3.3 µM and 0.55 µM | 6.2 µM | – | 0.509 µM | 2.33 µM and 1.34 µM | 25.8 µM and 5.76 µM | – | 5.41 µM and 1.25 µM | – | – | – | 0.31 µM | 0.253 µM | 0.602 µM | 0.307 µM | – | 0.214 µM | 0.23 µM | –
CCC1C(C(=O)Nc2ccccc2C)=C(C)NC(C)=C1c1ccccc1C (stereo not drawn) | > 100 µM | > 54.8 µM | > 100 µM | > 100 µM | 61.5 µM | > 100 µM | > 100 µM | > 61.1 µM | > 100 µM | – | – | – | – | – | – | – | – | – | – | –
Cc1ccc(NC(=O)CC/C(CC(=O)C(C)(C)C)=N\NC(=O)C[n+]2ccccc2)cc1C | > 100 µM | > 100 µM | > 100 µM | > 100 µM | > 100 µM | > 100 µM | > 100 µM | > 100 µM | > 100 µM | – | – | – | – | – | – | – | – | – | – | –
